Tested on: 323965-272-R-J2-PDC complex spheroid growth, % test/control
Experiment: Anticancer human tumor 323965-272-R-J2-PDC patient-derived pancreatic carcinoma cell line growth inhibition [Asc]
Settings: for IC50: curve of first compound; for viability, T/C: stronger effect = lower value; active = viability on the fitted dose curve at most 10% of control; inactive = the rest
In short: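 Complex solid-tumor spheroids incorporating human endothelial and mesenchymal stem cells received single agents or combinations over half-log dilution ranges anchored to clinical Cmax.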

[1] = second compound 0.00949 µM, first compound 0.0316 µM
[2] = second compound 0.00949 µM, first compound 0.1 µM
[3] = second compound 0.00949 µM, first compound 0.316 µM
[4] = second compound 0.00949 µM, first compound 1 µM
[5] = second compound 0.03 µM, first compound 0.0316 µM
[6] = second compound 0.03 µM, first compound 0.1 µM
[7] = second compound 0.03 µM, first compound 0.316 µM
[8] = second compound 0.03 µM, first compound 1 µM
[9] = second compound 0.0949 µM, first compound 0.0316 µM
[10] = second compound 0.0949 µM, first compound 0.1 µM
[11] = second compound 0.0949 µM, first compound 0.316 µM
[12] = second compound 0.0949 µM, first compound 1 µM
[13] = second compound 0.3 µM, first compound 0.0316 µM
[14] = second compound 0.3 µM, first compound 0.1 µM
[15] = second compound 0.3 µM, first compound 0.316 µM
[16] = second compound 0.3 µM, first compound 1 µM
[17] = second compound 0.949 µM, first compound 0.0316 µM
[18] = second compound 0.949 µM, first compound 0.1 µM
[19] = second compound 0.949 µM, first compound 0.316 µM
[20] = second compound 0.949 µM, first compound 1 µM
[21] = second compound 3 µM, first compound 0.0316 µM
[22] = second compound 3 µM, first compound 0.1 µM
[23] = second compound 3 µM, first compound 0.316 µM
[24] = second compound 3 µM, first compound 1 µM
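Note: compound exposure lasted 7 days starting three days after spheroid seeding.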
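Throughout, for viability, T/C: 100% = DMSO vehicle control wells with viability set relative to vehicle.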

C#Cc1c(F)ccc2cc(O)cc(-c3ncc4c(N5CC6CCC(C5)N6)nc(OCC56CCCN5CC(F)C6)nc4c3F)c12 (centres undefined) + CCN1C(C(=O)NC23CCC(C(=O)O)(CC2)CC3)C(c2cccc(Cl)c2F)C2(C(=O)Nc3cc(Cl)ccc32)C12CCCCC2
> 10 µM: IC50 (second compound 0.00949 µM) | IC50 (second compound 0.03 µM) | IC50 (second compound 0.0949 µM) | IC50 (second compound 0.3 µM) | IC50 (second compound 0.949 µM) | IC50 (second compound 3 µM)
inactive: viability, T/C [1] 100% | viability, T/C [2] 100% | viability, T/C [3] 98.2% | viability, T/C [4] 92.6% | viability, T/C (second compound 0.00949 µM, first compound 3.16 µM) 81.2% | viability, T/C (second compound 0.00949 µM, first compound 10 µM) 59.4% | viability, T/C [5] 107% | viability, T/C [6] 102% | viability, T/C [7] 102% | viability, T/C [8] 106% | viability, T/C (second compound 0.03 µM, first compound 3.16 µM) 83.8% | viability, T/C (second compound 0.03 µM, first compound 10 µM) 63.1% | viability, T/C [9] 104% | viability, T/C [10] 108% | viability, T/C [11] 94.1% | viability, T/C [12] 88.9% | viability, T/C (second compound 0.0949 µM, first compound 3.16 µM) 70.8% | viability, T/C (second compound 0.0949 µM, first compound 10 µM) 64.2% | viability, T/C [13] 105% | viability, T/C [14] 110% | viability, T/C [15] 112% | viability, T/C [16] 91.9% | viability, T/C (second compound 0.3 µM, first compound 3.16 µM) 78.6% | viability, T/C (second compound 0.3 µM, first compound 10 µM) 59.8% | viability, T/C [17] 101% | viability, T/C [18] 104% | viability, T/C [19] 102% | viability, T/C [20] 89.7% | viability, T/C (second compound 0.949 µM, first compound 3.16 µM) 79.3% | viability, T/C (second compound 0.949 µM, first compound 10 µM) 64.8% | viability, T/C [21] 102% | viability, T/C [22] 102% | viability, T/C [23] 97.8% | viability, T/C [24] 84.7% | viability, T/C (second compound 3 µM, first compound 3.16 µM) 63.1% | viability, T/C (second compound 3 µM, first compound 10 µM) 67.9%

CNC(C)C(=O)NC1CN(S(=O)(=O)c2cccc(S(=O)(=O)N3CCC4CCC(C(=O)NC(c5ccccc5)c5ccccc5)N4C(=O)C(NC(=O)C(C)NC)C3)c2)CCC2CCC(C(=O)NC(c3ccccc3)c3ccccc3)N2C1=O (centres undefined) + CCN1C(C(=O)NC23CCC(C(=O)O)(CC2)CC3)C(c2cccc(Cl)c2F)C2(C(=O)Nc3cc(Cl)ccc32)C12CCCCC2
> 1 µM: IC50 (second compound 0.00949 µM) | IC50 (second compound 0.03 µM) | IC50 (second compound 0.0949 µM) | IC50 (second compound 0.3 µM) | IC50 (second compound 0.949 µM) | IC50 (second compound 3 µM)
inactive: viability, T/C (second compound 0.00949 µM, first compound 0.00316 µM) 110% | viability, T/C (second compound 0.00949 µM, first compound 0.01 µM) 106% | viability, T/C [1] 96.8% | viability, T/C [2] 103% | viability, T/C [3] 109% | viability, T/C [4] 105% | viability, T/C (second compound 0.03 µM, first compound 0.00316 µM) 102% | viability, T/C (second compound 0.03 µM, first compound 0.01 µM) 99% | viability, T/C [5] 105% | viability, T/C [6] 105% | viability, T/C [7] 113% | viability, T/C [8] 106% | viability, T/C (second compound 0.0949 µM, first compound 0.00316 µM) 118% | viability, T/C (second compound 0.0949 µM, first compound 0.01 µM) 103% | viability, T/C [9] 103% | viability, T/C [10] 95% | viability, T/C [11] 106% | viability, T/C [12] 99.5% | viability, T/C (second compound 0.3 µM, first compound 0.00316 µM) 123% | viability, T/C (second compound 0.3 µM, first compound 0.01 µM) 113% | viability, T/C [13] 107% | viability, T/C [14] 92.8% | viability, T/C [15] 104% | viability, T/C [16] 102% | viability, T/C (second compound 0.949 µM, first compound 0.00316 µM) 112% | viability, T/C (second compound 0.949 µM, first compound 0.01 µM) 107% | viability, T/C [17] 96.2% | viability, T/C [18] 104% | viability, T/C [19] 95.1% | viability, T/C [20] 88.5% | viability, T/C (second compound 3 µM, first compound 0.00316 µM) 98.9% | viability, T/C (second compound 3 µM, first compound 0.01 µM) 109% | viability, T/C [21] 90.3% | viability, T/C [22] 101% | viability, T/C [23] 89.5% | viability, T/C [24] 95.2%
